Experimental data from patent publication US6933289B2, “Inhibition of irritating side effects associated with use of a topical ophthalmic medication” (Allergan, Inc., priority 2003, dated 2005).

What was measured:
[1] = Phase-solubility analysis: association constant between bimatoprost and cyclodextrin or cyclodextrin derivative; type: physicochemical; conditions: 1:1 complex with bimatoprost, stirred one week at room temperature
Procedure: CD represents the associated complex of the two. […] CD], according to equation 2. [formula]
The association constant between the bimatoprost and four cyclodextrin or cyclodextrin derivatives was determined by running phase-solubility analysis. A series of small glass bottles was set up, each fitted with a screw cap and a magnetic stir bar with increasing concentrations of cyclodextrin or cyclodextrin derivative dissolved in a fixed volume (e.g., 10 mL) of aqueous vehicle (e.g., the formulation minus the drug and the cyclodextrin or cyclodextrin derivative). […] Bottles were then capped and the suspensions were stirred for a week at room temperature to ensure equilibrium. Undissolved drug was removed by centrifugation, followed by filtration through a 0.45 μm filter membrane to obtain a clear solution, free of drug in suspension. The concentration of the solubilized drug in each filtrate sample was determined and drug solubility (y-axis) was plotted against the concentration of the cyclodextrin or cyclodextrin derivative (x-axis). […] In principle, S0 is equivalent to the y intercept (b) of the fitted line, however, in most cases it can more accurately be determined by direct measurement of the solubility rather than indirectly from the fit of data.

[2] = 0.02% bimatoprost, cited from earlier work

Row | Association Constant (molar association constant for bimatoprost) [1] | Compound | Hyperemia ([2]; no cyclodextrin) | Efficacy [2]
1 | ≈1913 M^−1 | 2-Hydroxypropyl β-cyclodextrin |  | 
2 |  | CCNC(=O)CCC/C=C\C[C@@H]1[C@@H](/C=C/[C@@H](O)CCc2ccccc2)[C@H](O)C[C@@H]1O [bimatoprost] | little hyperemia | loses efficacy
3 | ≈439 M^−1 | OC[C@H]1O[C@@H]2O[C@H]3[C@H](O)[C@@H](O)[C@@H](O[C@H]4[C@H](O)[C@@H](O)[C@@H](O[C@H]5[C@H](O)[C@@H](O)[C@@H](O[C@H]6[C@H](O)[C@@H](O)[C@@H](O[C@H]7[C@H](O)[C@@H](O)[C@@H](O[C@H]8[C@H](O)[C@@H](O)[C@@H](O[C@H]9[C@H](O)[C@@H](O)[C@@H](O[C@H]1[C@H](O)[C@H]2O)O[C@@H]9CO)O[C@@H]8CO)O[C@@H]7CO)O[C@@H]6CO)O[C@@H]5CO)O[C@@H]4CO)O[C@@H]3CO [γ-cyclodextrin] |  | 
4 | ≈1464 M^−1 | Sulfobutyl ether β-cyclodextrin |  | 
